As usually defined, the IC50 is the midpoint of a concentration-inhibition curve.

The target of the first assay is human orexin receptor 1 (Homo sapiens (Human), UniProt O43613). The assay can be described thus: Orexin antagonist activity, intracellular calcium FLIPR assay (orexin receptor 1). The note with it: RBL-2H3 cells stably expressing human orexin receptor 1; Ca2+ dye FLIPR; compound 15 minutes before orexin-A at approximately 80% maximal response; read-out: Human Orexin1R IC50. The class given is cell-based. How it is done: (§1) Orexin antagonist activity was determined by measuring changes in intracellular calcium levels using a Ca^2+ sensitive fluorescent dye. The changes in fluorescent signal were monitored by Fluorescent Imaging Plate Reader (FLIPR™) technology available from Molecular Devices, LLC, U.S.A. Orexin mediated increases in intracellular Ca^2+ concentration were readily detected upon activation with orexin-A. Twenty-four hours prior to the assay, RBL-2H3 cells stably expressing either human orexin receptor 1 or human orexin receptor 2 were seeded in cell culture medium in black, clear-bottom 384-well plates (commercially available from Corning Inc., U.S.A.) and grown overnight at 37° C., 5% CO2. On the day of the assay, cell culture media was removed and cells were loaded with Calcium 5 Dye (commercially sold by Molecular Devices, LLC, U.S.A.) for 1 hour at 37° C., 5% CO2. Test compounds (at 10 point half log concentration response curves from 10 μM) were added to cells for 15 minutes prior to the addition of orexin-A to all wells, to achieve a final concentration that produces approximately an 80% maximal response. The IC50 values were determined from ten point concentration response curves. Curves were generated using the average of two wells for each data point.
Chain of human orexin receptor 1 (O43613 whole entry): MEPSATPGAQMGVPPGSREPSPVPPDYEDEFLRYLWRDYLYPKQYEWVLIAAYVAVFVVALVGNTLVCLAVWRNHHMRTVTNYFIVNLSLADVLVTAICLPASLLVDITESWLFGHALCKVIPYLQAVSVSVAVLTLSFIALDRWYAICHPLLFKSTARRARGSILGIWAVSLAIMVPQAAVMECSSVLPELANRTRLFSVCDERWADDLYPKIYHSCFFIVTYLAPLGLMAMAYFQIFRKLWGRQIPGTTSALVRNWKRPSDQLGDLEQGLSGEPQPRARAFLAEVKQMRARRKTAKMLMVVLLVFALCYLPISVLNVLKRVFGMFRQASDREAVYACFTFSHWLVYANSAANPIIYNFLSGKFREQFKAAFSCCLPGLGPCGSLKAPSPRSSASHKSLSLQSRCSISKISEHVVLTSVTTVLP
In general terms: Calcium assays in cells follow changes in intracellular calcium, usually with a dye or a luminescent sensor.
On to `COc1cccc(OC)c1C(=O)N[C@@H]1COC[C@H]1Nc1nc2ccc(F)cc2s1` (relative stereo) [Example 65, trans-N-{4-[(6-Fluoro-1,3-benzothiazol-2-yl)amino]oxolan-3-yl}-2,6-dimethoxybenzamide], for which the IC50 is 29 nM. In the case of `Cc1ccc(-n2nccn2)c(C(=O)N[C@@H]2COC[C@@H]2Cc2nc3ccccc3s2)c1` (relative stereo) [Example 102, cis-N-[4-(1,3-Benzothiazol-2-ylmethyl)oxolan-3-yl]-5-methyl-2-(2H-1,2,3-triazol-2-yl)benzamide], the IC50 is 79 nM.

On to `O=C(NC1CCC[C@@H]1Nc1nc2ccc(F)cc2s1)c1c(Cl)cccc1Cl` (stereo in doubt) [Example 52, 2,6-Dichloro-N-[(1S,2S)-2-[(6-fluoro-1,3-benzothiazol-2-yl)amino]-cyclopentyl]benzamide], for which the IC50 came out at 270 nM. In the case of `Cc1ccc(-n2nccn2)c(C(=O)NC2CCCC2Cc2nc3ccc(Cl)cc3s2)c1` (stereo not shown) [Example 33, N-{2-[(6-Chloro-1,3-benzothiazol-2-yl)methyl]cyclopentyl}-5-methyl-2-(2H-1,2,3-triazol-2-yl)benzamide], the IC50 was 51 nM. Still for that read-out and setting: under `O=C(N[C@H]1CCC[C@@H]1Nc1nc2ccc(F)cc2s1)c1cc(F)ccc1-c1ncccn1` [Example 42, 5-Fluoro-N-[(1S,2S)-2-[(6-fluoro-1,3-benzothiazol-2-yl)amino]cyclopentyl]-2-(pyrimidin-2-yl)benzamide] stands 24 nM; under `O=C(N[C@H]1CCC[C@@H]1Nc1nc2ccc(F)cc2s1)c1cc(F)ccc1-n1ccnn1` [Example 45, 5-Fluoro-N-[(1S,2S)-2-[(6-fluoro-1,3-benzothiazol-2-yl)amino]cyclopentyl]-2-(1H-1,2,3-triazol-1-yl)benzamide], 80 nM. For `O=C(N[C@H]1CCC[C@@H]1Nc1nc2ccc(F)cc2s1)c1ccccc1OC(F)F` [Example 55, 2-(Difluoromethoxy)-N-[(1S,2S)-2-[(6-fluoro-1,3-benzothiazol-2-yl)amino]-cyclopentyl]benzamide], the half-inhibitory concentration (IC50) is 470 nM. Turning to `COc1cccc(C(=O)N[C@H]2CCC[C@@H]2Nc2nc3ccc(F)cc3s2)c1` [Example 56, N-[(1S,2S)-2-[(6-Fluoro-1,3-benzothiazol-2-yl)amino]cyclopentyl]-3-methoxybenzamide], the half-maximal inhibitory concentration (IC50) is 540 nM. For `Cc1cccc(C(=O)N[C@H]2CCC[C@@H]2Nc2nc3ccc(F)cc3s2)c1` [Example 57, N-[(1S,2S)-2-[(6-Fluoro-1,3-benzothiazol-2-yl)amino]cyclopentyl]-3-methylbenzamide], the 50% inhibitory concentration (IC50) came out at 780 nM. As to `O=C(N[C@H]1CCC[C@@H]1Nc1nc2ccc(F)cc2s1)c1ccccc1C1CC1` [Example 58, 2-Cyclopropyl-N-[(1S,2S)-2-[(6-fluoro-1,3-benzothiazol-2-yl)amino]-cyclopentyl]benzamide], the IC50 worked out at 870 nM.

In another assay the target is human orexin receptor 2 (Homo sapiens (Human), UniProt O43614). The assay can be described thus: Orexin antagonist activity, intracellular calcium FLIPR assay (orexin receptor 2). As to conditions: RBL-2H3 cells stably expressing human orexin receptor 2; Ca2+ dye FLIPR; compound 15 minutes before orexin-A at approximately 80% maximal response; read-out: Human Orexin2R IC50. The class given is cell-based. As for the experimental part: as §1
Chain of human orexin receptor 2 (O43614 whole entry): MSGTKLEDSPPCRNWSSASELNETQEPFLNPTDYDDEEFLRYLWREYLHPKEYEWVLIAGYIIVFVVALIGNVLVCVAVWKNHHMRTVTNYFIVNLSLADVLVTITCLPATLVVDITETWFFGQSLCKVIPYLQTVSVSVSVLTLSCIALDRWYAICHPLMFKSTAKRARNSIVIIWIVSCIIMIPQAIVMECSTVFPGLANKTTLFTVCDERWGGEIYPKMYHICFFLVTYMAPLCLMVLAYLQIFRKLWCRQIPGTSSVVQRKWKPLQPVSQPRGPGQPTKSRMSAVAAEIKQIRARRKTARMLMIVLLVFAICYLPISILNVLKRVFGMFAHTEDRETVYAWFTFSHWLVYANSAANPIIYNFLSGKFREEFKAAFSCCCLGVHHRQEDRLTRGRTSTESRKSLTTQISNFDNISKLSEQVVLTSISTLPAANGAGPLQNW
Turning to “5-Methyl-N-((1S,2S)-2-(quinoxalin-2-ylamino)cyclopentyl)-2-(2H-1,2,3-triazol-2-yl) benzamide [Example 21]”, the 50% inhibitory concentration (IC50) was found to be 5100 nM. Still for that read-out and setting: under `COc1cccc(OC)c1C(=O)N[C@@H]1COC[C@H]1Nc1nc2ccc(F)cc2s1` (relative stereo) [Example 65, trans-N-{4-[(6-Fluoro-1,3-benzothiazol-2-yl)amino]oxolan-3-yl}-2,6-dimethoxybenzamide] stands more than 10000 nM; under `Cc1ccc(-n2nccn2)c(C(=O)N[C@@H]2COC[C@@H]2Cc2nc3ccccc3s2)c1` (relative stereo) [Example 102, cis-N-[4-(1,3-Benzothiazol-2-ylmethyl)oxolan-3-yl]-5-methyl-2-(2H-1,2,3-triazol-2-yl)benzamide], more than 10000 nM; under `O=C(NC1CC(F)(F)CC1Nc1nc2ccc(Cl)cc2s1)c1ccccc1-n1nccn1` (single isomer, unassigned) [Example 105, N-{2-[(6-Chloro-1,3-benzothiazol-2-yl)amino]-4,4-difluorocyclopentyl}-2-(2H-1,2,3-triazol-2-yl)benzamide], 3540 nM. In the case of `O=C(NC1CC(F)(F)CC1Nc1nc2ccc(Cl)cc2s1)c1ccccc1-n1nccn1` (single isomer, unassigned) [Example 106, N-{2-[(6-Chloro-1,3-benzothiazol-2-yl)amino]-4,4-difluorocyclopentyl}-2-(2H-1,2,3-triazol-2-yl)benzamide], the half-maximal inhibitory concentration (IC50) amounted to 441 nM.

For `O=C(N[C@H]1CCC[C@@H]1Nc1nc2ccc(Cl)cc2s1)c1ccccc1-n1nccn1` [Example 91, N-[(1S,2S)-2-[(6-Chloro-1,3-benzothiazol-2-yl)amino]cyclopentyl]-2-(2H-1,2,3-triazol-2-yl)benzamide], the IC50 worked out at 4700 nM.
